According to patent US12201723B2, “Combined pharmaceutical formulation comprising gemcitabine-containing liposome composition and immune checkpoint inhibitor” (FUJIFILM Corporation, priority 2018, dated 2025):

Assays:
[1] = system: EMT6 tumor cells; assay: Drug efficacy test with combined use of PD-1 in tumor-bearing model mouse with subcutaneous transplantation of EMT6; assay type: in vivo
Description: As the test substance, the same substance as in Example 1 was used.
Changes in tumor volume are shown in FIG. 12 (mean value) and FIGS. 13 to 20 (on the basis of an individual). […] In Table 5 and Table 6, “Number of test subjects in complete remission” means that the tumor volume was zero.

[2] = system: intratumoral immune cells (CD8-positive T cells, M1 and M2 macrophages) of EMT6 tumors; assay: Changes in immune cell composition in tumor in tumor-bearing model mouse with subcutaneous transplantation of EMT6 (flow cytometry); assay type: in vivo; details: tumors excised Days 16 and 17 after start; Gem 240 mg/kg or Lipo 4 mg/kg 3 times; CTLA-4 10 mg/kg or PBS 5 times
Description: It is said that a high percentage of CD8-positive T cells in the tumor and a high ratio of M1 macrophages compared to M2 macrophages result in an antitumor environment (reference: J Clin Invest. 2012; 122(3); 787-95).
Tumors were excised on Days 16 and 17 after the start of administration and used for analysis of intratumoral immune cells.
The excised tumor was made into a cell-dispersed state using Tumor Dissociation Kit, mouse (catalog number 130-096-730, manufactured by Miltenyi Biotec GmbH), and intratumoral immune cells were isolated using CD45 (TIL) MicroBeads (catalog number 130-110-618, manufactured by Miltenyi Biotec GmbH). Dead cells were stained using LIVE/DEAD (trademark) Fixable Yellow Dead Cell Stain Kit (catalog number L34968, manufactured by Invitrogen Corporation), and various immune cell markers were stained using the following fluorescently labeled antibodies. […] The samples were analyzed using a flow cytometer (Attune NxT, manufactured by Invitrogen Corporation). CD8-positive T cells (CD3-positive, CD8-positive), M1 macrophages (CD11b-positive, F4/80-positive, MHC Class II-positive, CD206-negative), and M2 macrophages (CD11b-positive, F4/80-positive, MHC Class II-negative, CD206-positive) were identified, and the percentage of each cell group was calculated.

[3] = system: EMT6 tumor cells; assay: Drug efficacy test with combined use of PD-L1 in tumor-bearing model mouse with subcutaneous transplantation of EMT6
Description: An anti-PD-L1 antibody (hereinafter, also referred to as PD-L1), gemcitabine (hereinafter, also referred to as Gem), and gemcitabine-containing liposome composition (hereinafter, also referred to as liposome composition according to the embodiment of the present invention) were used as test substances. Gemcitabine hydrochloride (manufactured by Teva Pharmaceutical Industries Ltd.) dissolved in physiological saline was used as Gem. The liposome composition according to the embodiment of the present invention was diluted with a 5% glucose solution for injection (hereinafter, also referred to as 5% Glu; 0.05 g/mL) prior to use.
3×10^6 EMT6 cells, which are a mouse breast cancer cell line, were subcutaneously transplanted into the flank of female Balb mice to form subcutaneous tumors. Using the tumor volume as an index, inhibitory effects of combined administration of PD-L1 and Gem and combined administration of PD-L1 and the liposome composition according to the embodiment of the present invention on subcutaneous tumors were evaluated.
PD-L1 and an isotype control antibody thereof (hereinafter, also referred to as Iso antibody) were intraperitoneally administered twice a week for a total of 3 weeks, and Gem, the liposome composition according to the embodiment of the present invention, and a solvent therefor (5% Glu) were administered once a week by tail vein administration for a total of 3 weeks.
After the 3-week administration was completed, the drug was discontinued, and the tumor volume measurement was continued for 2 weeks. Test subjects with a tumor volume of more than 10% of body weight were euthanized during the test, and drug efficacy analysis was carried out based on the survival rate (tumor-free survival %).
Group configuration was set to a combination of 5% Glu and Iso antibody (10 mg/kg) for Group 1, a combination of 5% Glu and PD-L1 (10 mg/kg) for Group 2, a combination of Gem (240 mg/kg) and Iso antibody (10 mg/kg) for Group 3, a combination of Gem (240 mg/kg) and PD-L1 (10 mg/kg) for Group 4, a combination of the liposome composition according to the embodiment of the present invention (1 mg/kg) and Iso antibody (10 mg/kg) for Group 5, a combination of the liposome composition according to the embodiment of the present invention (1 mg/kg) and PD-L1 (10 mg/kg) for Group 6, a combination of the liposome composition according to the embodiment of the present invention (4 mg/kg) and Iso antibody (10 mg/kg) for Group 7, and a combination of the liposome composition according to the embodiment of the present invention (4 mg/kg) and PD-L1 (10 mg/kg) for Group 8.
(§1) In addition, Lipo (1) and Lipo (4) mean that the liposome composition according to the embodiment of the present invention was administered to a subject at a dose of 1 mg/kg and a dose of 4 mg/kg, respectively.
As a statistical analysis of an effect of prolonging the survival time, a log-rank test was carried out, and a p value of less than 5% between the groups was determined to have a statistically significant difference.

[4] = system: EMT6 tumor cells; assay: Drug efficacy test with combined use of anti-CTLA-4 antibody in tumor-bearing model mouse with subcutaneous transplantation of EMT6
Description: The anti-CTLA-4 antibody (hereinafter, also referred to as CTLA-4), Gem, and the liposome composition according to the embodiment of the present invention were used as test substances. […] The liposome composition according to the embodiment of the present invention was diluted with 5% Glu prior to use.
1.7×10^6 EMT6 cells, which are a mouse breast cancer cell line, were subcutaneously transplanted into the flank of female Balb/c mice to form subcutaneous tumors. Using the tumor volume as an index, inhibitory effects of combined administration of CTLA-4 and Gem and combined administration of CTLA-4 and the liposome composition according to the embodiment of the present invention on subcutaneous tumors were evaluated.
CTLA-4 and a solvent therefor (PBS) were intraperitoneally administered twice a week for a total of 3 weeks, and Gem, the liposome composition according to the embodiment of the present invention, and a solvent therefor (5% Glu) were administered once a week by tail vein administration for a total of 3 weeks.
After the 3-week administration was completed, the drug was discontinued, and the tumor volume measurement was continued for 4 weeks. Test subjects with a tumor volume of more than 10% of body weight were euthanized during the test, and drug efficacy analysis was carried out based on the survival rate (tumor-free survival %).
Group configuration was set to a combination of 5% Glu and PBS for Group 1, a combination of 5% Glu and CTLA-4 (10 mg/kg) for Group 2, a combination of Gem (240 mg/kg) and PBS for Group 3, a combination of Gem (240 mg/kg) and CTLA-4 (10 mg/kg) for Group 4, a combination of the liposome composition according to the embodiment of the present invention (1 mg/kg) and PBS for Group 5, a combination of the liposome composition according to the embodiment of the present invention (1 mg/kg) and CTLA-4 (10 mg/kg) for Group 6, a combination of the liposome composition according to the embodiment of the present invention (4 mg/kg) and PBS for Group 7, and a combination of the liposome composition according to the embodiment of the present invention (4 mg/kg) and CTLA-4 (10 mg/kg) for Group 8.
as §1
The survival rate (tumor-free survival %) in a case where a test subject with a tumor volume of more than 10% of body weight was euthanized was calculated, and the results of a survival curve by the Kaplan-Meier method are shown in FIG. 29. […] As a statistical analysis of an effect of prolonging the survival time, a log-rank test was carried out, and a p value of less than 5% between the groups was determined to have a statistically significant difference. Graghpad Prism version 5.03 was used for the calculation of median survival calculated from the survival curve by Kaplan-Meier method and the statistical analysis.

[5] = Gem 240 mg/kg or Lipo 1 mg/kg, CTLA-4 10 mg/kg or PBS

Nc1ccn([C@@H]2O[C@H](CO)[C@@H](O)C2(F)F)c(=O)n1 [Gem, (+)-2′-deoxy-2′,2′-difluorocytidine]
tumor growth inhibitory effect (in words) ([1]; Gem 240 mg/kg or Lipo 2 mg/kg, PD-1 10 mg/kg or PBS): tumor growth could not be stopped | Complete remission rate (%) ([1]; by day 41, Gem 240 mg/kg or Lipo 2 mg/kg, PD-1 10 mg/kg or PBS): 0% | Number of test subjects in complete remission ([1]; by post-transplantation day 41, 8 per group, Gem 240 mg/kg or Lipo 2 mg/kg once/3W tail, PD-1 10 mg/kg or PBS twice/3W i.p.): 0 | Tumor volume mean value (mm^3) ([1]; day 6 after transplantation, Gem 240 mg/kg or Lipo 2 mg/kg, PD-1 10 mg/kg or PBS): 432 mm^3 | Tumor volume mean value (mm^3) ([1]; day 9 after transplantation, Gem 240 mg/kg or Lipo 2 mg/kg, PD-1 10 mg/kg or PBS): 473 mm^3 | Tumor volume mean value (mm^3) ([1]; day 13 after transplantation, Gem 240 mg/kg or Lipo 2 mg/kg, PD-1 10 mg/kg or PBS): 1129 mm^3 | Tumor volume mean value (mm^3) ([1]; day 16 after transplantation, Gem 240 mg/kg or Lipo 2 mg/kg, PD-1 10 mg/kg or PBS): 1228 mm^3 | Tumor volume mean value (mm^3) ([1]; day 20 after transplantation, Gem 240 mg/kg or Lipo 2 mg/kg, PD-1 10 mg/kg or PBS): 2265 mm^3 | Tumor volume mean value (mm^3) ([1]; day 23 after transplantation, Gem 240 mg/kg or Lipo 2 mg/kg, PD-1 10 mg/kg or PBS): 3521 mm^3 | animals subjected to euthanasia by the day of test termination ([1]; post-transplantation day 41, Gem 240 mg/kg or Lipo 2 mg/kg, PD-1 10 mg/kg or PBS): all animals | percentage of CD8-positive T cells in the tumor (in words) [2]: not changed | tumor growth inhibitory effect (in words) ([3]; Gem 240 mg/kg or Lipo 1 mg/kg, PD-L1 or Iso antibody 10 mg/kg): tumor growth could not be stopped | Median survival ([3]; Kaplan-Meier, euthanasia at tumor volume >10% of body weight, Gem 240 mg/kg or Lipo 1 mg/kg, PD-L1 or Iso antibody 10 mg/kg): 20 | Complete remission rate (%) ([3]; by day 41, Gem 240 mg/kg or Lipo 1 mg/kg, PD-L1 or Iso antibody 10 mg/kg): 0% | Number of test subjects in complete remission ([3]; by post-transplantation day 41, 8 per group, Gem 240 mg/kg or Lipo 1 mg/kg once/3W tail, PD-L1 or Iso antibody 10 mg/kg twice/3W i.p.): 0 | test subjects subjected to euthanasia by the day of test termination ([3]; post-transplantation day 41, Gem 240 mg/kg or Lipo 1 mg/kg, PD-L1 or Iso antibody 10 mg/kg): all test subjects | effect of prolonging the survival time (in words) ([3]; single agents vs Group 1, combinations vs same drug + Iso antibody, Gem 240 mg/kg or Lipo 1 mg/kg, PD-L1 10 mg/kg): No significant prolongation | Median survival Percentage (control group / comparative group) [4, 5]: 1.40 | tumor growth inhibitory effect (in words) [4, 5]: tumor growth could not be stopped | Median survival ([4]; Kaplan-Meier, euthanasia at tumor volume >10% of body weight, Gem 240 mg/kg or Lipo 1 mg/kg, CTLA-4 10 mg/kg or PBS): 29.5 | Complete remission rate (%) ([4]; by day 52, Gem 240 mg/kg or Lipo 1 mg/kg, CTLA-4 10 mg/kg or PBS): 0% | Number of test subjects in complete remission ([4]; by post-transplantation day 52, 8 per group, Gem 240 mg/kg or Lipo 1 mg/kg once/3W tail, CTLA-4 10 mg/kg or PBS twice/3W i.p.): 0 | test subjects subjected to euthanasia by the day of test termination ([4]; post-transplantation day 52, out of 8, Gem 240 mg/kg or Lipo 1 mg/kg, CTLA-4 10 mg/kg or PBS): All test subjects | Log-rank Test Determination ([4]; single agents vs 5% Glu + PBS, combinations vs same drug + PBS, Gem 240 mg/kg or Lipo 1 mg/kg, CTLA-4 10 mg/kg): b (“b” indicates p<0.001) | effect of prolonging the survival time (in words) ([4]; single agents vs Group 1, combinations vs same drug + PBS, Gem 240 mg/kg or Lipo 1 mg/kg, CTLA-4 10 mg/kg): statistically significant effect
